The values below come from patent US9040717B2, “Pyrazole-amide compounds and pharmaceutical use thereof” (JAPAN TOBACCO INC., priority 2013, dated 2015).

The target in one experiment is human PDHK1 (hPDHK1) (Homo sapiens (Human), UniProt Q15118). Kind of experiment: Inhibitory action of PDHK1 activity in vitro (residual PDH activity after kinase reaction). Type of experiment: biochemical. On the procedure: (§1) The inhibitory action of PDHK activity was assessed indirectly by measuring the residual PDH activity after kinase reaction in the presence of a test compound.
The recombinant construct was transformed into Escherichia coli (DH5α-TOYOBO). The recombinant clones were identified, and plasmid DNA was isolated and subjected to the DNA sequence analysis. One clone which had the expected nucleic acid sequence was selected for expression work.
The Escherichia coli were grown to an optical density 0.6 ([…]) at 30° C. Protein expression was induced by the addition of 500 μmol/L isopropyl-β-thiogalactopyranoside. The Escherichia coli were cultured at 30° C. for 5 hr and harvested by centrifugation. Resuspension of the Escherichia coli paste was disrupted by a microfluidizer.
The eluted fractions containing FLAG-Tagged protein were pooled, dialyzed against 20 mmol/L HEPES-NaOH, 150 mmol/L sodium chloride, 0.5 mmol/L ethylenediamine tetraacetic acid (EDTA), 1% ethylene glycol, and 0.1% Pluronic F-68 (pH 8.0), and preserved at −80° C.
The mixture was incubated at room temperature for 90 min, and the residual PDH activity was measured.
The absorbance at 340 nm before and after PDH reaction was measured using a microplate reader to detect NADH produced by the PDH reaction.

The target in a further experiment is human PDHK2 (hPDHK2) (Homo sapiens (Human), UniProt Q15119). Kind of experiment: Inhibitory action of PDHK2 activity in vitro (residual PDH activity after kinase reaction). Conditions: monohydrate. It counts as biochemical. Here is the method: as §1
In the case of human PDHK2 (hPDHK2, Genbank Accession No. BC040478.1), modified hPDHK2 cDNA wherein FLAG-Tag sequence was added to the N terminus of hPDHK2 cDNA clone (pReceiver-M01/PDK2-GeneCopoeia) was prepared by PCR and cloned into a vector (pET17b-Novagen). The recombinant construct was transformed into Escherichia coli (DH5α-TOYOBO). The recombinant clones were identified, and plasmid DNA was isolated and subjected to the DNA sequence analysis. One clone which had the expected nucleic acid sequence was selected for expression work.
For expression of hPDHK2 activity, Escherichia coli strain BL21(DE3) cells (Novagen) were transformed with the pET17b vector containing modified hPDHK2 cDNA. The Escherichia coli were grown to an optical density 0.6 ([…]) at 30° C. Protein expression was induced by the addition of 500 μmol/L isopropyl-β-thiogalactopyranoside. The Escherichia coli were cultured at 30° C. for 5 hr and harvested by centrifugation. Resuspension of the Escherichia coli paste was disrupted by a microfluidizer. FLAG-Tagged protein was purified using FLAG affinity gel. […]
0.05 U/mL PDH and 0.8 μg/mL hPDHK2 were mixed in a buffer (50 mmol/L 3-morpholinopropanesulfonic acid (pH 7.0), 20 mmol/L dipotassium hydrogen phosphate, 60 mmol/L potassium chloride, 2 mmol/L magnesium chloride, 0.4 mmol/L EDTA, and 0.2% Pluronic F-68, 2 mmol/L dithiothreitol), and the mixture was incubated at 4° C. overnight to obtain a PDH/hPDHK2 complex. […] The mixture was incubated at room temperature for 90 min, and the residual PDH activity was measured. The absorbance at 340 nm before and after PDH reaction was measured using a microplate reader to detect NADH produced by the PDH reaction. The hPDHK2 inhibition rate (%) of the test compound was calculated from the formula [{(PDH activity of test compound−PDH activity of control)/PDH activity of blank−PDH activity of control)}×100].

A further experiment concerns liver PDH activity. The experiment is described as follows: Ex vivo PDH activation assay, liver. Type of experiment: in vivo, Sprague-Dawley rats. As to conditions: non-fasting SD rats, vehicle 13 ± 3, mean ± S.D. (n = 3). Here is the method:
(§2) The action of test compound on tissue PDH activity was evaluated. NADH production was detected via p-iodonitrotetrazolium violet (INT)-coupled system to measure PDH activity.
(§3) Normal male Sprague-Dawley rats were randomly allocated to the vehicle group and the test compound groups. The vehicle (0.5% aqueous methylcellulose solution, 5 mL/kg) or the test compound was orally administered to the rats. At 5 or 20 hr after administration, the rats were anesthetized with an intraperitoneal injection of sodium pentobarbital (60 mg/kg), and liver slices and epididymal adipose tissues were collected.
To the liver slices were rapidly added 9 volumes of ice-cold homogenization buffer (0.25 mol/L sucrose, 5 mmol/L tris(hydroxymethyl)aminomethane hydrochloride (pH 7.5), 2 mmol/L EDTA), and the mixtures were homogenized using a Polytron homogenizer. The homogenates were centrifuged at 600×g, 4° C. for 10 min to obtain the supernatant. The supernatants (1 mL) were centrifuged at 16,000×g, 4° C. for 10 min to collect the precipitates. The precipitates were washed by resuspension in the homogenization buffer (1 mL) and centrifuged in the same manner. The precipitates were frozen with liquid nitrogen and stored at −80° C. as the liver mitochondrial fraction.
(§4) The mitochondrial fractions were thawed and suspended with the sample buffer (0.25 mol/L sucrose, 20 mmol/L tris(hydroxymethyl)aminomethane hydrochloride (pH 7.5), 50 mmol/L potassium chloride, and 1 mL/L 4-(1,1,3,3-tetramethylbutyl)phenyl-polyethylene glycol (Triton X-100)). Active PDH activity (PDHa activity) and total PDH activity (PDHt activity) were measured to evaluate the PDH activity. For the measurement of the PDHt activity, equal amounts of the mitochondrial suspension and the activation buffer (0.25 mol/L sucrose, 20 mmol/L tris(hydroxymethyl)aminomethane hydrochloride (pH 7.5), 50 mmol/L potassium chloride, 1 mL/L Triton X-100, 4 mmol/L calcium chloride, 40 mmol/L magnesium chloride, 10 mmol/L sodium dichloroacetate) were mixed, and the mixtures were incubated at 37° C. for 10 min. Forty microliters of the mitochondrial suspensions diluted with a sample buffer were added to a 96-well microplate for activity measurement and blank measurement. Then 180 μL of the reaction mixture (0.056 mmol/L potassium phosphate buffer (pH 7.5), 5.6 mmol/L DL-carnitine, 2.8 mmol/L NAD, 0.22 mmol/L thiamin pyrophosphate, 0.11 mmol/L Coenzyme A, 1.1 mL/L Triton X-100, 1.1 mmol/L magnesium chloride, 1.1 g/L bovine serum albumin, 0.67 mmol/L INT, 7.2 μmol/L phenazine methosulfate, 28 mmol/L sodium oxamate) was added to each well, and then 20 μL of 50 mmol/L sodium pyruvate for activity measurement or water for blank measurement were added. The mixtures were incubated at room temperature under shading. The absorbances at 500-750 nm, which were attributable to reduction of INT, the final electron acceptor, were measured using a microplate reader over time and the changes in the absorbance were calculated. The PDH activity was calculated by subtraction of the change in absorbance of the blank well from that of the activity measurement well. The percentage of the PDHa activity to the PDHt activity was calculated and taken as an index of the PDH activation.

The subject of experiment [1] is adipose tissue PDH activity. The experiment is described as follows: Ex vivo PDH activation assay, adipose tissue. Type of experiment: in vivo, Sprague-Dawley rats. As to conditions: non-fasting SD rats, vehicle 31 ± 10, mean ± S.D. (n = 3). On the procedure: as §2, §3
To the adipose tissues were rapidly added 3 volumes of an ice-cold homogenization buffer, and the mixtures were homogenized using a Polytron homogenizer. The homogenates were centrifuged at 600×g, 4° C. for 10 min to obtain the supernatant. The supernatants were centrifuged at 16,000×g, 4° C. for 10 min to collect the precipitates. The precipitates were washed by resuspension in the homogenization buffer (1 mL) and centrifuged in the same manner. The precipitates were frozen with liquid nitrogen and stored at −80° C. as the adipose tissue mitochondrial fraction.
as §4

[2] abbreviates: Table 2, 5 hr after oral 3 mg/kg.
Setting [3] is: Table 2, 20 hr after oral 3 mg/kg.

Chain of human PDHK1 (hPDHK1) (Q15118 29-436): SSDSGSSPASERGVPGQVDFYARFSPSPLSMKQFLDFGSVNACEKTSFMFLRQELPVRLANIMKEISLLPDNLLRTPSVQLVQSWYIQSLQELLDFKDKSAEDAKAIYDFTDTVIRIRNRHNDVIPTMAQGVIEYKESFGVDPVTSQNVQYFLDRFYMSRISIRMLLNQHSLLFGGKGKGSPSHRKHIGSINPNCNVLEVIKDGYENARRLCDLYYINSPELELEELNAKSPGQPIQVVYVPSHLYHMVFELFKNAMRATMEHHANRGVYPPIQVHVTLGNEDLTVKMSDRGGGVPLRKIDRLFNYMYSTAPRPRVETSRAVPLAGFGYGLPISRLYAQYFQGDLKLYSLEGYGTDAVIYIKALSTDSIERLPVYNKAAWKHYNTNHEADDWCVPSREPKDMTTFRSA

In the case of `CC(C)(O)CCOc1cc(-c2cnn(C(C)(C)C(N)=O)c2)c2c(c1)[C@@](O)(C(F)(F)F)c1ccccc1-2` [Compound (2h), 2-{4-[(9R)-9-hydroxy-2-(3-hydroxy-3-methylbutyloxy)-9-(trifluoromethyl)-9H-fluoren-4-yl]-1H-pyrazol-1-yl}-2-methylpropanamide monohydrate], the figures for the IC50 at human PDHK1 (hPDHK1) and at human PDHK2 (hPDHK2) were 6.6 nM and 4.9 nM, respectively. Further, the “PDHa activity (% of PDHt activity)” value in the experiment with liver PDH activity (setting [2]) is reported as 59 ± 6 % of PDHt activity; in the experiment with liver PDH activity (setting [3]), 31 ± 5 % of PDHt activity; in experiment [1] (setting [2]) it was 59 ± 2 % of PDHt activity; in experiment [1] (setting [3]), 44 ± 12 % of PDHt activity.

As a reminder, the IC50 is the concentration needed to halve the response being measured. The low end stands for greater potency, the high end for weaker potency.
